Assay results as given in EP1186305A1 (Schering Aktiengesellschaft, priority 2000, dated 2002).

Key:
[1] = in vivo; details: male, mouse, iv
Description: (§2) The behavior of the animals and the lethality was monitored for 7 days post injection.

[2] = Viscosity of contrast media formulations (capillary viscosimeter); assay type: physicochemical; details: formulations 0.788 (monomer) or 0.394 (dimer) mol/L
Method: (§1) For this purpose contrast media formulation with a molar concentration of […] for monomeric compounds and of […] for dimeric compounds, equivalent to a iodine concentration of 300 mgI/mL or 189 mgBr/mL were prepared at neutral pH. After heat sterilization under standard conditions for 20 min at 120°C changes in pH and free bromine and iodine was measured. The osmolality was measured at 37°C using a Knauer vapor pressure osmometer. Viscosity of contrast media formulations was determined using a Schott capillary viscosimeter which was standardized with water.

[3] = Osmolality of contrast media formulations (vapor pressure osmometer); assay type: physicochemical
Method: as §1

[4] = Aqueous solubility; assay type: physicochemical
[5] = test system: male Sprague-Dawley mice; assay: Acute tolerance, approximate LD50 after single intravenous injection
Description: as §2

[6] = test system: erythrocyte morphology; assay: Influence on erythrocyte morphology in rat blood (damage index); assay type: cell-based; details: for Erythrocyte morphology Damage index 2 h: six parts blood to one part test substance, 2 h incubation
Method: Six parts by volume was mixed with one part by volume of each test substance. The mixtures were examined with and optical microscope immediately, 1 hour and 2 hours after incubation in terms of a damage index of blood cells.

[7] = Phantom studies with conventional mammography (X-ray absorption of contrast media in agar discs); details: 10 mm agar discs in 5 cm water phantom, film mammography
Method: The agar pieces were prepared in cell-culture well-plates having a diameter of 24 mm and a final height of 10 mm. After formation of solid agar the agar discs were placed in a water phantom containing 5 cm height of water. Additionally a control agar disc prepared with physiological saline instead of CM volume was added. The whole phantom was imaged with a commercial available mammograph at various energies of 30 kV, 25 and 20 kV and 140 mAs. After exposure the mammographic films were developed according to standard quality guidelines. Later the films were digitized and signal intensities of the agar discs and surrounding water background were measured with a imaging analyzing software.

[8] = Pharmacokinetic profile after intravenous administration of 3H-labelled compound; assay type: in vivo, male Sprague-Dawley rats; details: rats
Method: The pharmacokinetic profile of example 4 was examined after intravenous administration of 3H-labelled example 4 to male Sprague-Dawley rats. For this purpose example 4 was labeled with tritium of a chemical concentration of 300 mg / mL and a radioactive concentration of 2.75 MBq/mL. After intravenous injection in the right jugular vein via a catheter at a dose of 600 mg EXAMPLE 4/kg blood samples of 400 µl were collected in plastic tubes at 0.083, 0.25, 0.5, 1, 2, 4, 6, 8 and 24 hours after administration. Plasma samples were obtained after blood sample centrifugation at 250 g for 10 min. After injection, the rats were transferred in metabolic cages allowing the collection of urine and faeces at different intervals. Aliquots of 100 µl of samples with blood or urine were added to 10 ml of scintillation cocktail and the radioactivity was measured by means of a Tricor-2500 TR automatic scintillation spectrometer. Faeces samples were freeze-dried for two days. They were milled and aliquots of 50 or 100 mg were taken, moistened with 1 mL water and digested with Soluene-350® and 1 mL of isopropyl alcohol at 50 °C for 24 hours. Digested faeces samples were bleached and radioactivity was measured as mentioned above. Plasma levels of example 4 and mean cumulative urinary and faecal excretion data were fitted to a two-compartment model. Curve fit and evaluation of kinetic parameters was performed on the TOP-Fit v 2.0β program.

[9] = i.v. 600 mg/kg, two-compartment model

| SMILES | Viscosity (37°C) [2] [mPa·s] | Osmolality a) monomer, 0.788 mol/L, 37°C [3] [mOsm/kg water] | Aqueous solubility [4] [mgBr/mL] | Osmolality b) dimer, 0.394 mol/L, 37° C [3] [mOsm/kg water] | increase of the tolerability with respect to the iodinated and brominated reference compounds [5] | influence on erythrocyte morphology compared to iodinated reference substances [6] | Erythrocyte morphology Damage index 2 h [6] | further results |
| --- | --- | --- | --- | --- | --- | --- | --- | --- |
| CC(=O)N(CC(O)CO)c1c(Br)c(C(=O)NCC(O)CO)c(Br)c(C(=O)NCC(O)CO)c1Br (centres unmarked) [reference compound] | 4.6 | 908 | > 300 | – | – | – | – | LD50 at 7 days [1]: ~59000 µmol/kg |
| CN(C(=O)CC(=O)N(C)c1c(Br)c(C(=O)NC(CO)C(O)CO)c(Br)c(C(=O)NC(CO)C(O)CO)c1Br)c1c(Br)c(C(=O)NC(CO)C(O)CO)c(Br)c(C(=O)NC(CO)C(O)CO)c1Br (centres unmarked) [Example 26, N,N'-bis-[2,4,6-tribromo-3,5-bis-[N-(1-hydroxymethyl-2,3-dihydroxypropyl)carbamoyl]phenyl]-N,N'-dimethylmalonamide] | 6.3 | – | 400 | 370 | 13 - 23% | substantially less influence on erythrocyte morphology than the iodinated reference substances | 0.51 | – |
| CN(CC(O)CO)C(=O)c1c(Br)c(NC(=O)CO)c(Br)c(C(=O)NCC(O)CO)c1Br (centres unmarked) [Example 4, 2,4,6-tribromo-5-hydroxyacetylamino-N,N'-bis-(2,3-dihydroxypropyl)-N-methylisophthalamide] | 3.5 | 818 | >400 | – | 13 - 23% | substantially less influence on erythrocyte morphology than the iodinated reference substances | 0.82 | detectable down to concentrations [7]: 1.31 mmol/L; detectable down to concentrations, moles equivalent to mg I/mL of Iohexol [7]: 0.5 mg I/mL; in faeces measured ([8]; 24 h p.i.): 5.1 % I.D.; in the urine detected ([8]; 24 h p.i.): 63.7 % I.D.; metabolisation (bile fluid, HPLC-analysis) ([8]; bile collected via catheter in the bile duct): no metabolisation; cumulative faecal excretion ([8]; i.v. 600 mg/kg, at 24 h): 5.39 % of injected dose; cumulative urinary excretion ([8]; i.v. 600 mg/kg, at 24 h p.i.): 62.8 % of injected dose; distribution volume Vc [8, 9]: 0.26 L/kg; t½ α [8, 9]: 11.4 min; t½ β [8, 9]: 31.2 min |
| NC(=O)c1c(Br)c(C(=O)NC(CO)C(O)CO)c(Br)c(N(CCO)C(=O)CO)c1Br (centres unmarked) [Example 14, 2,4,6-tribromo-5-[N-(2-hydroxyethyl)hydroxyacetylamino]-N-(1-hydroxymethyl-2,3-dihydroxypropyl)isophthalamide] | 3.4 | 500 | >400 | – | 13 - 23% | substantially less influence on erythrocyte morphology than the iodinated reference substances | 0.88 | – |
| NC(=O)c1c(Br)c(C(=O)NCC(O)CO)c(Br)c(N(CC(O)CO)C(=O)CC(=O)N(CC(O)CO)c2c(Br)c(C(N)=O)c(Br)c(C(=O)NCC(O)CO)c2Br)c1Br (centres unmarked) [Example 25, N,N'-bis-[2,4,6-tribromo-5-carbamoyl-3-[N-(2,3-dihydroxypropyl)carbamoyl]phenyl]-N,N'-bis-(2,3-dihydroxypropyl)-malonamide] | 5.5 | – | 400 | 320 | 13 - 23% | substantially less influence on erythrocyte morphology than the iodinated reference substances | 0.45 | – |
| CN(C(=O)CC(=O)N(C)c1c(I)c(C(=O)NC(CO)C(O)CO)c(I)c(C(=O)NC(CO)C(O)CO)c1I)c1c(I)c(C(=O)NC(CO)C(O)CO)c(I)c(C(=O)NC(CO)C(O)CO)c1I (centres unmarked) [Iotrolan, N,N'-bis-[2,4,6-triiodo-3,5-bis-[N-(1-hydroxymethyl-2,3-dihydroxypropyl)carbamoyl]phenyl]-N,N'-dimethylmalonamide, reference compound] | 8.5 | – | >400 | 320 | – | – | 0.69 | LD50 at 7 days ([1]; Sprague-Dawley): 63000 µmol/kg |
| CC(=O)N(CC(O)CO)c1c(I)c(C(=O)NCC(O)CO)c(I)c(C(=O)NCC(O)CO)c1I (centres unmarked) [Iohexol, 5-[N-(2,3-dihydroxypropyl)acetylamino]-2,4,6-triiodo-N,N'-bis-(2,3-dihydroxypropyl)isoph-thalamide, reference compound] | – | – | – | – | – | – | 1.31 | – |
